Experimental data taken from patent publication US12077503B2, “Substituted cyclic amides and their use as herbicides” (FMC CORPORATION, priority 2015, dated 2024).

How the values were obtained:
Type in all cases: in vivo
Kochia (Kochia scoparia) [1] = test: Test A preemergence; details: for Plant response rating, Kochia: 0 to 100 scale (0 no effect, 100 complete control)
Method in brief: (§1)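 In a loam soil and sand blend, planted seeds got a preemergence directed soil spray, and young plants at the one- to two-leaf stage, 2–10 cm high, got a postemergence application; ~10 d greenhouse hold; injury rated visually, 0 = none, 100 = complete control.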

[2] = system: barnyardgrass (Echinochloa crus-galli); test: Test A preemergence; details: for Plant response rating, Barnyardgrass: 0 to 100 scale (0 no effect, 100 complete control)
Method in brief: as §1

[3] = system: giant foxtail (Setaria faberii); test: Test A preemergence; details: for Plant response rating, Foxtail, Giant: 0 to 100 scale (0 no effect, 100 complete control)
Method in brief: as §1

[4] = system: pigweed (Amaranthus retroflexus); test: Test A preemergence; details: for Plant response rating, Pigweed: 0 to 100 scale (0 no effect, 100 complete control)
[5] = system: ragweed (common ragweed, Ambrosia elatior); test: Test A preemergence; details: for Plant response rating, Ragweed: 0 to 100 scale (0 no effect, 100 complete control)
Method in brief: as §1

[6] = system: ryegrass, Italian (Italian ryegrass, Lolium multiflorum); test: Test A preemergence; details: for Plant response rating, Ryegrass, Italian: 0 to 100 scale (0 no effect, 100 complete control)
Method in brief: as §1

[7] = system: Galium (catchweed bedstraw, Galium aparine); test: Test A postemergence
Method in brief: as §1

Kochia (Kochia scoparia) [8] = test: Test A postemergence
Method in brief: as §1

[9] = system: barnyardgrass (Echinochloa crus-galli); test: Test A postemergence
Method in brief: as §1

[10] = system: blackgrass (Alopecurus myosuroides); test: Test A postemergence
Method in brief: as §1

corn (Zea mays) = test: Test A postemergence
Method in brief: as §1

[11] = system: giant foxtail (Setaria faberii); test: Test A postemergence
Method in brief: as §1

[12] = system: pigweed (Amaranthus retroflexus); test: Test A postemergence
Method in brief: as §1

[13] = system: ragweed (common ragweed, Ambrosia elatior); test: Test A postemergence
Method in brief: as §1

[14] = system: ryegrass, Italian (Italian ryegrass, Lolium multiflorum); test: Test A postemergence
Method in brief: as §1

[15] = system: wheat (Triticum aestivum); test: Test A postemergence
Method in brief: as §1

[16] = system: barnyardgrass (Echinochloa crus-galli); test: Test B flooded paddy test; details: Flood
Method in brief: (§2)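 Flooding to 3 cm over soil accompanied treatment, which consisted of adding compound to the standing water around 2-leaf plants; depth was then maintained. Visual assessment versus controls followed at 13 to 15 d (scale 0–100, 0 meaning no effect).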

[17] = system: ducksalad (Heteranthera limosa); test: Test B flooded paddy test; details: Flood
Method in brief: as §2

rice (Oryra sativa) = test: Test B flooded paddy test; details: Flood
Method in brief: as §2

[18] = system: sedge, umbrella (small-flower umbrella sedge, Cyperus difformis); test: Test B flooded paddy test; details: Flood
Method in brief: as §2

[19] = Postemergence, 125 g ai/ha, visual injury after approx. 10 d, 0 to 100 scale, 0 no effect, 100 complete control
[20] = Postemergence, 500 g ai/ha, visual injury, 0 to 100 scale (0 no effect, 100 complete control), approx. 10 d
[21] = 250 g ai/ha, visually evaluated after 13 to 15 d
[22] = Preemergence, 500 g ai/ha, visual injury approx. 10 d
[23] = 125 g ai/ha, postemergence, visual injury rating on 0 to 100 scale (0 no effect, 100 complete control), approx. 10 d
[24] = 500 g ai/ha, postemergence, 0 to 100 scale, 0 no effect, 100 complete control
[25] = 500 g ai/ha, 0 to 100 scale where 0 is no effect and 100 is complete control, 13 to 15 d

## O=C(Nc1cccc(F)c1F)C1C(=S)NCC1c1ccc(Cl)cc1 (stereo not drawn) [Compound 1387]
Kochia (Kochia scoparia) [1]; 500 g ai/ha, preemergence
  Plant response rating, Kochia: 60
Kochia (Kochia scoparia) [1]; Preemergence, 125 g ai/ha
  Plant response rating, Kochia: 30
[2]; 500 g ai/ha, preemergence
  Plant response rating, Barnyardgrass: 90
[2]; Preemergence, 125 g ai/ha
  Plant response rating, Barnyardgrass: 50
[3]; 500 g ai/ha, preemergence
  Plant response rating, Foxtail, Giant: 90
[3]; Preemergence, 125 g ai/ha
  Plant response rating, Foxtail, Giant: 80
[4]; 500 g ai/ha, preemergence
  Plant response rating, Pigweed: 60
[4]; Preemergence, 125 g ai/ha
  Plant response rating, Pigweed: 0
[5]; 500 g ai/ha, preemergence
  Plant response rating, Ragweed: 0
[5]; Preemergence, 125 g ai/ha
  Plant response rating, Ragweed: 0
[6]; 500 g ai/ha, preemergence
  Plant response rating, Ryegrass, Italian: 0
[6]; Preemergence, 125 g ai/ha
  Plant response rating, Ryegrass, Italian: 0
[7]; [19]
  Plant response rating, Galium: 30
[7]; [20]
  Plant response rating, Galium: 50
Kochia (Kochia scoparia) [8]; [19]
  Plant response rating, Kochia: 0
Kochia (Kochia scoparia) [8]; [20]
  Plant response rating, Kochia: 50
[9]; [19]
  Plant response rating, Barnyardgrass: 60
[9]; [20]
  Plant response rating, Barnyardgrass: 80
[10]; [19]
  Plant response rating, Blackgrass: 0
[10]; [20]
  Plant response rating, Blackgrass: 40
Corn (Zea mays); [19]
  Plant response rating, Corn: 0
Corn (Zea mays); [20]
  Plant response rating, Corn: 10
[11]; [19]
  Plant response rating, Foxtail, Giant: 60
[11]; [20]
  Plant response rating, Foxtail, Giant: 80
[12]; [19]
  Plant response rating, Pigweed: 0
[12]; [20]
  Plant response rating, Pigweed: 60
[13]; [19]
  Plant response rating, Ragweed: 0
[13]; [20]
  Plant response rating, Ragweed: 30
[14]; [19]
  Plant response rating, Ryegrass, Italian: 0
[14]; [20]
  Plant response rating, Ryegrass, Italian: 40
[15]; [19]
  Plant response rating, Wheat: 0
[15]; [20]
  Plant response rating, Wheat: 0
[16]; [21]
  Plant response rating, Barnyardgrass (0 to 100 scale where 0 is no effect and 100 is complete control): 0
[17]; [21]
  Plant response rating, Ducksalad (0 to 100 scale where 0 is no effect and 100 is complete control): 0
Rice (Oryra sativa); [21]
  Plant response rating, Rice (0 to 100 scale where 0 is no effect and 100 is complete control): 0
[18]; [21]
  Plant response rating, Sedge, Umbrella (0 to 100 scale where 0 is no effect and 100 is complete control): 0

## COc1ccc(NC(=O)C2C(=O)NCC2c2ccc(F)c(F)c2)cc1F (stereo not drawn) [Compound 415]
Kochia (Kochia scoparia) [1]; 125 g ai/ha, preemergence
  Plant response rating, Kochia: 0
Kochia (Kochia scoparia) [1]; [22]
  Kochia plant response rating (0 to 100 scale, 0 is no effect, 100 is complete control): 0
[2]; 125 g ai/ha, preemergence
  Plant response rating, Barnyardgrass: 0
[2]; [22]
  Barnyardgrass plant response rating (0 to 100 scale, 0 is no effect, 100 is complete control): 0
[3]; 125 g ai/ha, preemergence
  Plant response rating, Foxtail, Giant: 0
[3]; [22]
  Foxtail, Giant plant response rating (0 to 100 scale, 0 is no effect, 100 is complete control): 0
[4]; 125 g ai/ha, preemergence
  Plant response rating, Pigweed: 0
[4]; [22]
  Pigweed plant response rating (0 to 100 scale, 0 is no effect, 100 is complete control): 0
[5]; 125 g ai/ha, preemergence
  Plant response rating, Ragweed: 0
[5]; [22]
  Ragweed plant response rating (0 to 100 scale, 0 is no effect, 100 is complete control): 0
[6]; 125 g ai/ha, preemergence
  Plant response rating, Ryegrass, Italian: 0
[6]; [22]
  Ryegrass, Italian plant response rating (0 to 100 scale, 0 is no effect, 100 is complete control): 0
[7]; [23]
  Galium plant response rating: 0
[7]; [24]
  Plant response rating, Galium: 0
Kochia (Kochia scoparia) [8]; [23]
  Kochia plant response rating: 0
Kochia (Kochia scoparia) [8]; [24]
  Plant response rating, Kochia: 0
[9]; [23]
  Barnyardgrass plant response rating: 0
[9]; [24]
  Plant response rating, Barnyardgrass: 0
[10]; [23]
  Blackgrass plant response rating: 0
[10]; [24]
  Plant response rating, Blackgrass: 0
Corn (Zea mays); [23]
  Corn plant response rating: 0
Corn (Zea mays); [24]
  Plant response rating, Corn: 0
[11]; [23]
  Foxtail, Giant plant response rating: 0
[11]; [24]
  Plant response rating, Foxtail, Giant: 0
[12]; [23]
  Pigweed plant response rating: 0
[12]; [24]
  Plant response rating, Pigweed: 0
[13]; [23]
  Ragweed plant response rating: 0
[13]; [24]
  Plant response rating, Ragweed: 0
[14]; [23]
  Ryegrass, Italian plant response rating: 0
[14]; [24]
  Plant response rating, Ryegrass, Italian: 0
[15]; [23]
  Wheat plant response rating: 0
[15]; [24]
  Plant response rating, Wheat: 0
[16]; [25]
  Plant response rating, Barnyardgrass: 0
[17]; [25]
  Plant response rating, Ducksalad: 0
Rice (Oryra sativa); [25]
  Plant response rating, Rice: 0
[18]; [25]
  Plant response rating, Sedge, Umbrella: 0
